Like-named read-outs stand apart in the source and are kept apart here.
Key:
[1] = molecular target: Mouse Ghrelin Receptor (GHS-R 1A) (Mus musculus (Mouse), UniProt Q99P50); assay: Calcium release, antagonist; format: cell-based
From the text: (§1) Mouse LTK-cells (ATCC CCL-1.3) were stably transfected with a plasmid containing the CMV minimal promoter (CMVmin) linked to three cAMP response elements (CRE) followed by a luciferase reporter gene. Based on this parental cell line, single cell clones stably overexpressing the human, rat or mouse GHS-R 1A have been established and characterized with respect to suitability for the different assay formats.
(§2) For determination of calcium release the respective cell line was loaded with Fluo-4 NW Calcium Assay Kit (Moleculare Probes/Invitrogen # F10741) for 80 min @ 37° C. After 15 minutes of preincubation with different concentrations of the test compounds ghrelin was added and the signal was monitored for 60 seconds by a FlexStation3 microplate reader (Molecular Devices).
(§3) IC50 values were determined by using the GraphPad Prism analysis program (GraphPad Software).
(§4) In the following table 1 results obtained for selected compounds of the invention are presented in comparison to compound 50 disclosed in WO07/020,013. Values given are either single measurements or mean values of up to nine independent experiments performed in duplicate (binding) or quadruplicate (functional assays) measurements.

[2] = molecular target: Rat Ghrelin Receptor (GHS-R 1A) (Rattus norvegicus (Rat), UniProt O08725); assay: Calcium release, antagonist; format: cell-based
Sequence of Rat Ghrelin Receptor (GHS-R 1A) (O08725 whole entry): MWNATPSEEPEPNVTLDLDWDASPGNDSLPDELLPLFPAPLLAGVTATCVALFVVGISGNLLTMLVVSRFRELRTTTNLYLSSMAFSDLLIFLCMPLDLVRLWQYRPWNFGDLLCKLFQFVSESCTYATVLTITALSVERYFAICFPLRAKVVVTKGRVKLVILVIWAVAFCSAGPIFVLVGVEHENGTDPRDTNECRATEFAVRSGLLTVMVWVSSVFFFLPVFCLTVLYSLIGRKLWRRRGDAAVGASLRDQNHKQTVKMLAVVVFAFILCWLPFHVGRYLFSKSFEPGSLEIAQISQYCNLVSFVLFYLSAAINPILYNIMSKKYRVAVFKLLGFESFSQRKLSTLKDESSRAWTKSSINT
From the text: as §1, §2, §3, §4

[3] = molecular target: MDR-1 (P-glycoprotein, Pgp) (Homo sapiens (Human), UniProt P08183); assay: Inhibition of MDR1 ATPase (Pgp-Glo assay, SF9 membrane preparations); format: biochemical
Sequence of MDR-1 (P-glycoprotein, Pgp) (P08183 whole entry): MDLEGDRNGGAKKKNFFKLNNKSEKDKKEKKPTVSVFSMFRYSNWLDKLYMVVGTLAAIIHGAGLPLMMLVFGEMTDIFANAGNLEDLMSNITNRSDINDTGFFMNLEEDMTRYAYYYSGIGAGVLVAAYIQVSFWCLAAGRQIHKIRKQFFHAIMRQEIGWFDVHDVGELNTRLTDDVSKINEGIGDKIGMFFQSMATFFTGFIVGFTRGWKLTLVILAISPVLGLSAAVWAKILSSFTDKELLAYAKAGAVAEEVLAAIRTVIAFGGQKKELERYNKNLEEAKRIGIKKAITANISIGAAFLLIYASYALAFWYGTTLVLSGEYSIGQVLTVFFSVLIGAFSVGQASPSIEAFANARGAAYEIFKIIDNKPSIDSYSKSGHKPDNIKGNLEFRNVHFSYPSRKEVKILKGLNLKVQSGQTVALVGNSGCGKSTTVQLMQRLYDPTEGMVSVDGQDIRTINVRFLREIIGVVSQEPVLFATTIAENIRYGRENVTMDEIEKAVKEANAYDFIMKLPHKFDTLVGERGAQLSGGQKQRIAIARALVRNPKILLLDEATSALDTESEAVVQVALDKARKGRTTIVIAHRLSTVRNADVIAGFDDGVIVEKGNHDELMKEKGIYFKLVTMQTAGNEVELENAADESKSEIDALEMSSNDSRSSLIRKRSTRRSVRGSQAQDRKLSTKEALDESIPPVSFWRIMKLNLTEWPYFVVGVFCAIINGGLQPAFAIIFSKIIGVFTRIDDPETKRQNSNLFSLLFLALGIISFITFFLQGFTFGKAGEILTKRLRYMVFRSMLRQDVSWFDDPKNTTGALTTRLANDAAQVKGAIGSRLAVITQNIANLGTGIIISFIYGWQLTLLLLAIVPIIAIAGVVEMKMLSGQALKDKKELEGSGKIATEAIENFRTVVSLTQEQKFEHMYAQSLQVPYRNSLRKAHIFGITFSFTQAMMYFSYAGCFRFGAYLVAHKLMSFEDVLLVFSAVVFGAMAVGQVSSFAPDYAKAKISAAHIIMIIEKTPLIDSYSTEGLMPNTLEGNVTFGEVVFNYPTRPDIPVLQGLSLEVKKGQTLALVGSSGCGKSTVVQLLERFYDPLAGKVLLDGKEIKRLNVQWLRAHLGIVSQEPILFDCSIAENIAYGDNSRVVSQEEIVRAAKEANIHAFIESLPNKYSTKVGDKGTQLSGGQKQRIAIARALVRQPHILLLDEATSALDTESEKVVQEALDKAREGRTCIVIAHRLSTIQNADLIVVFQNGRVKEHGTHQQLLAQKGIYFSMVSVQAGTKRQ
Experimental: For detection of MDR-1 (P-glycoprotein, Pgp) ATPase activity commercially available membrane preparations of MDR-1 overexpressing SF9 insect cells (SB-MDR1-Sf9-ATPase Membrane; 2.5 mg/500 μL; Solvo/tebu-bio #168SB-MDR1-Sf9-ATPase) were used. Since transport by MDR-1 is ATP-dependent, ATP consumption indicates transport activity of MDR-1. ATP consumption is detected as a decrease in luminescence from a second reaction with a recombinant firefly luciferase by using the Pgp-Glo™ Assay Kit (Promega # V3591).

hERG channel = hERG channel (Homo sapiens (Human), UniProt Q12809); assay: Predictor hERG Fluorescence Polarization Assay; format: binding
Sequence of hERG channel (Q12809 whole entry): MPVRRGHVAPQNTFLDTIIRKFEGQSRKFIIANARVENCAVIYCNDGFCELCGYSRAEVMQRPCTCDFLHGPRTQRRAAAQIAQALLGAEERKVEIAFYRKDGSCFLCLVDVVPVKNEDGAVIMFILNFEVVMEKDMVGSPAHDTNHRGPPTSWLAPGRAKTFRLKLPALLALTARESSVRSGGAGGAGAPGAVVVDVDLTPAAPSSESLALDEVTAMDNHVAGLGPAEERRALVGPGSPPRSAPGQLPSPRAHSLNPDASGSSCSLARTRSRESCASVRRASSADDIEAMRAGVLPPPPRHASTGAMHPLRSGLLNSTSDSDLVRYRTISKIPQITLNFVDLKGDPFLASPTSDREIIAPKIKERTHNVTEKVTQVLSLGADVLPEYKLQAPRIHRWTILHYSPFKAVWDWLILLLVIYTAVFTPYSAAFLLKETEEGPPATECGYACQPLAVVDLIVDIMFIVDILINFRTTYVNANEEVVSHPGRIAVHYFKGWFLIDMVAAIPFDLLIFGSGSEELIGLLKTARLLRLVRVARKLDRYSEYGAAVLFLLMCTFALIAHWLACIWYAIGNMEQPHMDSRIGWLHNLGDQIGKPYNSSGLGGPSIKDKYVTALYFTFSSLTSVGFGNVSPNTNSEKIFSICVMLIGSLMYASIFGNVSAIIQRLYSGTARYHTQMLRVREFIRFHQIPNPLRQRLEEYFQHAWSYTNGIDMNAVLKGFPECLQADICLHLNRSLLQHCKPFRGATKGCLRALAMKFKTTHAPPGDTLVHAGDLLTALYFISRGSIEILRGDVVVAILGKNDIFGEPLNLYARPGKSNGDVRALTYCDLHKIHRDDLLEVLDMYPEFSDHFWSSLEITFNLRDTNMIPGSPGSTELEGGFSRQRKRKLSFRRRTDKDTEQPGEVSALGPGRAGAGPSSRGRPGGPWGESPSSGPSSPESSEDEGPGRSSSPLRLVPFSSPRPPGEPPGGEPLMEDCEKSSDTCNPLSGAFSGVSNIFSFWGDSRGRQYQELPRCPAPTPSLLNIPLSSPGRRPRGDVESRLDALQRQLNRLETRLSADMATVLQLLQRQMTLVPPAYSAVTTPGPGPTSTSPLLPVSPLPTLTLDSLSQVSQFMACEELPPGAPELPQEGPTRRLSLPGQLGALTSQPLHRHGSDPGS
From the text: The Predictor™ hERG Fluorescence Polarization Assay (Invitrogen, Karlsruhe, GER) determines whether test compounds block the hERG channel [Piper, D. R. et al., Assay Drug Dev Technol. 2008, 6(2):213-23]. The assay uses a membrane fraction containing hERG channel protein (Predictor™ hERG Membrane) and a high-affinity red fluorescent hERG channel ligand, or “tracer” (Predictor™ hERG Tracer Red), in a homogenous, fluorescence polarization (FP)-based format. Compounds that bind to the hERG channel protein (competitors) are identified by their ability to displace the tracer, resulting in a lower fluorescence polarization. The assay was performed according to guidelines of the manufacturer

CYP3A4 = CYP3A4 (Homo sapiens (Human), UniProt P08684); assay: CYP3A4 inhibition in human liver microsomes, direct and metabolism-dependent; format: in vitro ADME
Sequence of CYP3A4 (P08684 whole entry): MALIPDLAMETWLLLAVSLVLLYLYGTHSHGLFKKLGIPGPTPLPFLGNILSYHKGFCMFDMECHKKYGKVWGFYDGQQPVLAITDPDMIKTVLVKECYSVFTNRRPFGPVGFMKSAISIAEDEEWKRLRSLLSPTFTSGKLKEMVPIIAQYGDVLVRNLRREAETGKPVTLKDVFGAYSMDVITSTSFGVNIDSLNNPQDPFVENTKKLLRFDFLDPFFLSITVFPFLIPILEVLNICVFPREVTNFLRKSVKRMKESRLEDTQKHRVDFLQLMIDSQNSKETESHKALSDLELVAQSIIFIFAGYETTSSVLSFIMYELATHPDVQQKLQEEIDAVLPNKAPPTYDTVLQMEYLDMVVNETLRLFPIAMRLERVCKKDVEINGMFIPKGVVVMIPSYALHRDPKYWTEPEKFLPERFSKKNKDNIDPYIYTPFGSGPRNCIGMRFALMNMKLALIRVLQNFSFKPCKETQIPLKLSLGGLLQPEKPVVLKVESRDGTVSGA
Experimental: Direct and metabolism-dependent inhibition of CYP enzymes are assessed with specific marker substrates by a HPLC-based UV detection method in human liver microsomes. Incubations are carried out as doublets with final concentrations ranging from 0.01 to 200 μM (30 min, 37° C.). Metabolism-dependent inhibition was assessed by incubation for 30 minutes in the presence of NADPH prior to the addition of marker substrate to allow the generation of metabolites. Percent inhibition is plotted against concentration to calculate or extrapolate IC50 values from the sigmoid curve.

[4] = Stability in liver microsomes; format: in vitro ADME, human; conditions: @37° C./1 mg/ml Liver Microsomes, 10 μM
Experimental: (§5) Metabolic stability in liver microsomes of different species (in the presence of NADPH, 1 mg/ml microsomal protein) was evaluated at 37° C. over time in triplicates at a test concentration of 10 μM. Loss of parent compound is measured by an HPLC-based UV detection method. For prediction of rat hepatic clearance half-lives (t1/2) were fitted from first-order rate constant k (min^−1) obtained from the slope of time versus In % remaining.

[5] = Stability in liver microsomes; format: in vitro ADME, rat; conditions: @37° C./1 mg/ml Liver Microsomes, 10 μM
Experimental: as §5

[6] = Stability in liver microsomes; format: in vitro ADME, mouse; conditions: 37° C./1 mg/ml Liver Microsomes, 10 μM
Experimental: as §5

[7] = CaCo-2 permeability assay; format: in vitro ADME; conditions: human; for Papp A→B at 2 h: a to b, read-out: CaCo-2 Assay Papp ab; for Papp A→B at 2 h / Papp B→A at 2 h: 3 or 5 μM, 2 hours at 37° C.; for Papp B→A at 2 h: b to a, read-out: CaCo-2 Assay Papp ba; for efflux ratio at 2 h: read-out: CaCo-2 Assay ba/ab
Experimental: For the CaCo-2 permeability assay 80.000 CaCo-2 cells (ATCC HTB-37) were seeded in DMEM supplemented with 10% FCS, 1% Penicillin/Streptomycin and 1% non-essential amino acids per 24 well transwell plate (Corning 3397) and were grown for 21 days by changing the media every second day. On day 21 the medium was replaced by HBSS buffer (Invitrogen #14065) supplemented with 0.25% and 1% BSA for the donor and acceptor compartment, respectively. The compounds were added to the respective donor compartment in a concentration of 3 or 5 μM and were incubated for 2 hours at 37° C. The respective compound concentrations were determined by LC-MS analytics using an API 2000. Data analysis was performed as described by Sun and Pang 2008, Drug Metabolism and Disposition 36, 102-123.

[8] = molecular target: T1, Human Ghrelin Receptor (GHS-R 1A) (Homo sapiens (Human), UniProt Q92847); assay: Competitive binding, iodinated ghrelin tracer, intact LTK-cells overexpressing GHS-R 1A; conditions: 60 min at 37° C.
T1 sequence (Q92847 whole entry): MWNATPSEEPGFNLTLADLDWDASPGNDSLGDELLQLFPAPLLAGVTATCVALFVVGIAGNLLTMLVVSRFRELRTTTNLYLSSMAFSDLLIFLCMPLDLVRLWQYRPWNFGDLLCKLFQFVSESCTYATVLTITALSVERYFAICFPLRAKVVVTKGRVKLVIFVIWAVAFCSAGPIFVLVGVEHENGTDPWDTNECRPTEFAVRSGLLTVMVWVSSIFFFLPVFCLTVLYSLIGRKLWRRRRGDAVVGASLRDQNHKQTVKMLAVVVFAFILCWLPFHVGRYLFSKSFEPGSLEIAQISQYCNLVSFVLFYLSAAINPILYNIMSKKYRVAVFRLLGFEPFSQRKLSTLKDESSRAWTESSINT
From the text: as §1
For receptor competitive binding studies, iodinated ghrelin was used as a tracer at conditions of about 80% saturation binding. Different concentrations of the test compounds were analyzed for displacement of the tracer. For this purpose, the suspension of intact cells plus tracer mix and different test compound concentrations was layered on top of silicon/paraffin oil, incubated for 60 min at 37° C. and subjected to centrifugation. After freezing in liquid nitrogen the cell pellets were separated from the supernatant by cutting the tubes in the intermediate silicon/paraffin oil section and analyzed by γ-radiation analysis. The amount of unspecific binding was determined by including unlabeled ghrelin at 1 μM final concentration.
as §3
(§6) Values given are either single measurements or mean values of up to nine independent experiments performed in duplicate (binding) or quadruplicate (functional assays) measurements.

[9] = molecular target: T1, Human Ghrelin Receptor (GHS-R 1A); assay: CRE/Luc reporter gene assay, antagonist; format: cell-based; conditions: 6 h, 1 μM rolipram
From the text: as §1
For the CRE/Luc reporter gene assay, the mouse LTK-cells stably expressing the human GHS-1RA and a luciferase reporter gene under the control of CRE elements and the CMV minimal promoter were incubated for 6 h with 1 μM rolipram in the presence of different concentrations of AEZS-130. Subsequently, cells were lysed and ATP bioluminescence was measured in the luminescence mode on FlexStation3 (Molecular Devices).
as §3, §6

[10] = molecular target: T1, Human Ghrelin Receptor (GHS-R 1A); assay: Calcium release, antagonist; format: cell-based; conditions: 15 minutes preincubation, then ghrelin
From the text: as §1, §2, §3, §6

[11] = marker substrate midazolam, 30 minutes preincubation with NADPH, read-out: CYP3A4 Inhibition Midazolam Preincubation EC50
[12] = marker substrate midazolam, direct inhibition, human liver microsomes, read-out: CYP3A4 Inhibition Midazolam EC50
[13] = 15 minutes preincubation, then ghrelin, read-out: Mouse Ghrelin Receptor Antagonist Calcium Release IC50
[14] = 15 minutes preincubation, then ghrelin, read-out: Rat Ghrelin Receptor Antagonist Calcium Release IC50

Sequence of Mouse Ghrelin Receptor (GHS-R 1A) (Q99P50 whole entry): as the sequence (O08725 whole entry) above, with P30S, A249S counted along it

Compound | IC50 [1] | IC50 [2] | Inhibition of MDR1 ATPase EC50 [3] | hERG Predictor EC50 (hERG channel) | EC50 (CYP3A4; [11]) | EC50 (CYP3A4; [12]) | Stability in Liver Microsomes Human % Remaining after 1 h Incubation [4] | Stability in Liver Microsomes Rat % Remaining after 1 h Incubation [5] | Stability in Liver Microsomes Mouse % Remaining (@30 min) [6] | Papp A→B at 2 h [7] | Papp B→A at 2 h [7] | efflux ratio at 2 h [7] | IC50 [8] | IC50 [9] | IC50 [10] | IC50 [1, 13] | IC50 [2, 14] | EC50 (hERG channel) | EC50 (CYP3A4; marker substrate testosteron, 30 minutes preincubation with NADPH, read-out: CYP3A4 Inhibition Testosteron Preincubation EC50) | EC50 (CYP3A4; marker substrate testosteron, direct inhibition, human liver microsomes, read-out: CYP3A4 Inhibition Testosteron EC50)
COc1ccc(Cn2c([C@@H](Cc3ccccc3)NC(C)=O)nnc2[C@@H](Cc2c[nH]c3ccccc23)NC(=O)c2ccccn2)cc1.O=C(O)C(F)(F)F [Cpd 4, Pyridine-2-carboxylic acid [(R)-1-[5-((R)-1-acetylamino-2-phenyl-ethyl)-4-(4-methoxy-benzyl)-4H-[1,2,4]triazol-3-yl]-2-(1H-indol-3-yl)-ethyl]-amide] | 68.7 nM | 239 nM | no full dose | no full dose | 2300 nM | 3900 nM | 9.1% | 46.7% | 0.0% | 1.41 ×10⁻⁶ cm/s | 25.4 ×10⁻⁶ cm/s | 18 |  |  |  |  |  |  |  | 
COc1ccc(Cn2c([C@@H](Cc3ccccc3)NC=O)nnc2[C@@H](Cc2c[nH]c3ccccc23)NC(=O)c2ccccn2)cc1.O=C(O)C(F)(F)F [Cpd 5, Pyridine-2-carboxylic acid [(R)-1-[5-((R)-1-formylamino-2-phenyl-ethyl)-4-(4-methoxy-benzyl)-4H-[1,2,4]triazol-3-yl]-2-(1H-indol-3-yl)-ethyl]-amide] |  |  | no inhibition | no full dose | 1200 nM | 3800 nM | 0% | 41.9% | 0.0% | 1.26 ×10⁻⁶ cm/s | 16.8 ×10⁻⁶ cm/s | 13.3 | 3.4 nM | 8.3 nM | 3.1 nM | 89.3 nM | 290 nM |  |  | 
COc1ccc(Cn2c(CCc3ccccc3)nnc2[C@@H](Cc2c[nH]c3ccccc23)NC(=O)OCC(C)C)cc1.O=C(O)C(F)(F)F [Cpd 17, {(R)-2-(1H-Indol-3-yl)-1-[4-(4-methoxy-benzyl)-5-phenethyl-4H-[1,2,4]triazol-3-yl]-ethyl}-carbamic acid isobutyl ester] |  |  | no full dose |  |  |  | 0% | 24.8% | 0.0% | 22.4 ×10⁻⁶ cm/s | 10 ×10⁻⁶ cm/s | 0.45 | 8.6 nM | 21.1 nM | 31.4 nM | 607 nM | 925 nM | 3680 nM | 2000 nM | 10400 nM

— patent US8546435B2, “Triazole derivatives with improved receptor activity and bioavailability properties as ghrelin antagonists of growth hormone secretagogue receptors” (AEterna Zentaris GmbH, priority 2010, dated 2013)
